#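 The compound was tested at five concentrations on cells cultured in 96-well plates, with a 48-hour exposure period. TGI: total growth inhibition.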
# Experiments:
# Assay in all cases: NCI tumour cell line growth inhibition, 48 h
# [1] = test system: HCC-2998 colon
# [2] = test system: UACC-257 melanoma
# [3] = test system: A498 renal
# [4] = test system: SK-MEL-2 melanoma
# [5] = test system: RXF 393 renal
# [6] = test system: OVCAR-3 ovarian
# [7] = test system: KM12 colon
# [8] = test system: UACC-62 melanoma
# [9] = test system: U251 CNS
# [10] = test system: HCT-15 colon
# [11] = test system: SW-620 colon
# [12] = test system: NCI-H460 lung
# [13] = test system: HOP-62 NSCLC
# [14] = test system: IGROV1 ovarian
# [15] = test system: KM20L2 colon
# [16] = test system: HOP-92 NSCLC
# [17] = test system: MOLT-4 leukemia
# [18] = test system: SNB-78 CNS
# [19] = test system: SN12C renal
# [20] = test system: SNB-19 CNS
# [21] = test system: NCI-H23 lung
# [22] = test system: UO-31 renal
# [23] = test system: NCI-H522 lung
# [24] = test system: SF-539 CNS
# [25] = test system: SK-OV-3 ovarian
# [26] = test system: LOX IMVI melanoma
# [27] = test system: DLD-1 colon
# [28] = test system: RPMI-8226 leukemia
# [29] = test system: HL-60(TB) leukemia
# [30] = test system: OVCAR-5 ovarian
# [31] = test system: P388/ADR leukemia
# [32] = test system: MCF7 breast
# [33] = test system: K-562 leukemia
# [34] = test system: SN12K1 renal
# [35] = test system: SF-295 CNS
# [36] = test system: CCRF-CEM leukemia
# [37] = test system: P388 leukemia
# [38] = test system: HT29 colon
# [39] = test system: XF 498 CNS
# [40] = test system: SK-MEL-28 melanoma
# [41] = test system: A549 NSCLC
# [42] = test system: CAKI-1 renal
# [43] = test system: COLO 205 colon
# [44] = test system: SK-MEL-5 melanoma
# [45] = test system: MALME-3M melanoma
# [46] = test system: HCT-116 colon
# [47] = test system: SNB-75 CNS
# [48] = test system: DMS 273 small cell lung
# [49] = test system: SF-268 CNS
# [50] = test system: EKVX NSCLC
# [51] = test system: NCI-H226 lung
# [52] = test system: M19-MEL melanoma
# [53] = test system: NCI/ADR-RES ovarian
# [54] = test system: OVCAR-4 ovarian
# [55] = test system: HOP-18 NSCLC
# [56] = test system: OVCAR-8 ovarian
# [57] = test system: DMS 114 small cell lung
# [58] = test system: M14 melanoma
# [59] = test system: SR leukemia
# [60] = test system: TK-10 renal
# [61] = test system: 786-0 renal
# [62] = test system: LXFL 529 NSCLC
# [63] = test system: ACHN renal
# [64] = test system: RXF-631 renal
smiles,measurement,setting,value
O=C(NN1C(=O)CS(=O)(=O)C1c1ccc(Cl)c(Cl)c1)c1ccncc1 (centres undefined),TGI,[1],> 100 µM
same,TGI,[2],> 100 µM
same,TGI,[3],> 100 µM
same,TGI,[4],> 100 µM
same,TGI,[5],> 100 µM
same,TGI,[6],> 100 µM
same,TGI,[7],> 100 µM
same,TGI,[8],> 100 µM
same,TGI,[9],> 100 µM
same,TGI,[10],> 100 µM
same,TGI,[11],> 100 µM
same,TGI,[12],> 100 µM
same,TGI,[13],> 100 µM
same,TGI,[14],> 100 µM
same,TGI,[15],> 100 µM
same,TGI,[16],> 100 µM
same,TGI,[17],> 71.8 µM
same,TGI,[18],> 100 µM
same,TGI,[19],> 100 µM
same,TGI,[20],> 100 µM
same,TGI,[21],> 100 µM
same,TGI,[22],> 100 µM
same,TGI,[23],> 100 µM
same,TGI,[24],> 100 µM
same,TGI,[25],> 100 µM
same,TGI,[26],> 100 µM
same,TGI,[27],> 100 µM
same,TGI,[28],> 71.5 µM
same,TGI,[29],> 90.4 µM
same,TGI,[30],> 100 µM
same,TGI,[31],> 74.8 µM
same,TGI,[32],> 100 µM
same,TGI,[33],> 100 µM
same,TGI,[34],> 100 µM
same,TGI,[35],> 100 µM
same,TGI,[36],> 86.1 µM
same,TGI,[37],> 60.1 µM
same,TGI,[38],> 100 µM
same,TGI,[39],> 100 µM
same,TGI,[40],> 100 µM
same,TGI,[41],> 100 µM
same,TGI,[42],> 100 µM
same,TGI,[43],> 100 µM
same,TGI,[44],> 100 µM
same,TGI,[45],> 100 µM
same,TGI,[46],> 100 µM
same,TGI,[47],> 100 µM
same,TGI,[48],> 31.6 µM
same,TGI,[49],> 100 µM
same,TGI,[50],> 100 µM
same,TGI,[51],> 100 µM
same,TGI,[52],> 100 µM
same,TGI,[53],> 100 µM
same,TGI,[54],> 100 µM
same,TGI,[55],> 100 µM
same,TGI,[56],> 100 µM
same,TGI,[57],> 100 µM
Cc1cccc(NC(=O)C(=O)C(C2OC(=O)c3ccccc32)[N+](=O)[O-])c1C (centres undefined),TGI,[1],27 µM
same,TGI,[58],26.7 µM
same,TGI,[2],17.6 µM
same,TGI,[3],32 µM
same,TGI,[4],17.2 µM
same,TGI,[5],20.7 µM
same,TGI,[59],> 100 µM
same,TGI,[6],5.11 µM
same,TGI,[60],32 µM
same,TGI,[7],26.9 µM
same,TGI,[8],23.1 µM
same,TGI,[9],12.6 µM
same,TGI,[10],19.7 µM
same,TGI,[11],20.9 µM
same,TGI,[12],18.7 µM
same,TGI,[13],31.1 µM
same,TGI,[14],27.7 µM
same,TGI,[15],42.7 µM
same,TGI,[17],> 100 µM
same,TGI,[18],> 100 µM
same,TGI,[19],18.9 µM
same,TGI,[20],35.1 µM
same,TGI,[21],18.9 µM
same,TGI,[22],21.4 µM
same,TGI,[23],4.2 µM
same,TGI,[24],34.9 µM
same,TGI,[25],26.7 µM
same,TGI,[26],6.26 µM
same,TGI,[61],21.8 µM
same,TGI,[62],20.3 µM
same,TGI,[27],23.1 µM
same,TGI,[63],22.9 µM
same,TGI,[29],6.94 µM
same,TGI,[30],33.3 µM
same,TGI,[33],39.7 µM
same,TGI,[35],28.1 µM
same,TGI,[36],20.4 µM
same,TGI,[38],35.1 µM
same,TGI,[39],18.7 µM
same,TGI,[40],25.1 µM
same,TGI,[41],35.4 µM
same,TGI,[64],33.7 µM
same,TGI,[42],24.2 µM
same,TGI,[43],29.1 µM
same,TGI,[44],19.2 µM
same,TGI,[45],10.5 µM
same,TGI,[46],21.3 µM
same,TGI,[47],19.7 µM
same,TGI,[48],10.3 µM
same,TGI,[49],24.7 µM
same,TGI,[50],46.3 µM
same,TGI,[51],26.4 µM
same,TGI,[52],3.91 µM
same,TGI,[54],25.8 µM
same,TGI,[55],22.3 µM
same,TGI,[56],26.8 µM
same,TGI,[57],10.3 µM

# — PubChem BioAssay (NCI)
